Results on 14 molecules are retold here after ChEMBL document CHEMBL1629456, “ApoA-I mimetic peptides promote pre-β HDL formation in vivo causing remodeling of HDL and triglyceride accumulation at higher dose” (Bioorg Med Chem, 2010).

The test has as its target Phospholipid-transporting ATPase ABCA1 (Mus musculus, UniProt P41233). In words: Induction of ABCA1-mediated [3H]cholesterol efflux in mouse RAW 264.7 macrophages after 24 hrs.

Phospholipid-transporting ATPase ABCA1, sequence (P41233 whole entry): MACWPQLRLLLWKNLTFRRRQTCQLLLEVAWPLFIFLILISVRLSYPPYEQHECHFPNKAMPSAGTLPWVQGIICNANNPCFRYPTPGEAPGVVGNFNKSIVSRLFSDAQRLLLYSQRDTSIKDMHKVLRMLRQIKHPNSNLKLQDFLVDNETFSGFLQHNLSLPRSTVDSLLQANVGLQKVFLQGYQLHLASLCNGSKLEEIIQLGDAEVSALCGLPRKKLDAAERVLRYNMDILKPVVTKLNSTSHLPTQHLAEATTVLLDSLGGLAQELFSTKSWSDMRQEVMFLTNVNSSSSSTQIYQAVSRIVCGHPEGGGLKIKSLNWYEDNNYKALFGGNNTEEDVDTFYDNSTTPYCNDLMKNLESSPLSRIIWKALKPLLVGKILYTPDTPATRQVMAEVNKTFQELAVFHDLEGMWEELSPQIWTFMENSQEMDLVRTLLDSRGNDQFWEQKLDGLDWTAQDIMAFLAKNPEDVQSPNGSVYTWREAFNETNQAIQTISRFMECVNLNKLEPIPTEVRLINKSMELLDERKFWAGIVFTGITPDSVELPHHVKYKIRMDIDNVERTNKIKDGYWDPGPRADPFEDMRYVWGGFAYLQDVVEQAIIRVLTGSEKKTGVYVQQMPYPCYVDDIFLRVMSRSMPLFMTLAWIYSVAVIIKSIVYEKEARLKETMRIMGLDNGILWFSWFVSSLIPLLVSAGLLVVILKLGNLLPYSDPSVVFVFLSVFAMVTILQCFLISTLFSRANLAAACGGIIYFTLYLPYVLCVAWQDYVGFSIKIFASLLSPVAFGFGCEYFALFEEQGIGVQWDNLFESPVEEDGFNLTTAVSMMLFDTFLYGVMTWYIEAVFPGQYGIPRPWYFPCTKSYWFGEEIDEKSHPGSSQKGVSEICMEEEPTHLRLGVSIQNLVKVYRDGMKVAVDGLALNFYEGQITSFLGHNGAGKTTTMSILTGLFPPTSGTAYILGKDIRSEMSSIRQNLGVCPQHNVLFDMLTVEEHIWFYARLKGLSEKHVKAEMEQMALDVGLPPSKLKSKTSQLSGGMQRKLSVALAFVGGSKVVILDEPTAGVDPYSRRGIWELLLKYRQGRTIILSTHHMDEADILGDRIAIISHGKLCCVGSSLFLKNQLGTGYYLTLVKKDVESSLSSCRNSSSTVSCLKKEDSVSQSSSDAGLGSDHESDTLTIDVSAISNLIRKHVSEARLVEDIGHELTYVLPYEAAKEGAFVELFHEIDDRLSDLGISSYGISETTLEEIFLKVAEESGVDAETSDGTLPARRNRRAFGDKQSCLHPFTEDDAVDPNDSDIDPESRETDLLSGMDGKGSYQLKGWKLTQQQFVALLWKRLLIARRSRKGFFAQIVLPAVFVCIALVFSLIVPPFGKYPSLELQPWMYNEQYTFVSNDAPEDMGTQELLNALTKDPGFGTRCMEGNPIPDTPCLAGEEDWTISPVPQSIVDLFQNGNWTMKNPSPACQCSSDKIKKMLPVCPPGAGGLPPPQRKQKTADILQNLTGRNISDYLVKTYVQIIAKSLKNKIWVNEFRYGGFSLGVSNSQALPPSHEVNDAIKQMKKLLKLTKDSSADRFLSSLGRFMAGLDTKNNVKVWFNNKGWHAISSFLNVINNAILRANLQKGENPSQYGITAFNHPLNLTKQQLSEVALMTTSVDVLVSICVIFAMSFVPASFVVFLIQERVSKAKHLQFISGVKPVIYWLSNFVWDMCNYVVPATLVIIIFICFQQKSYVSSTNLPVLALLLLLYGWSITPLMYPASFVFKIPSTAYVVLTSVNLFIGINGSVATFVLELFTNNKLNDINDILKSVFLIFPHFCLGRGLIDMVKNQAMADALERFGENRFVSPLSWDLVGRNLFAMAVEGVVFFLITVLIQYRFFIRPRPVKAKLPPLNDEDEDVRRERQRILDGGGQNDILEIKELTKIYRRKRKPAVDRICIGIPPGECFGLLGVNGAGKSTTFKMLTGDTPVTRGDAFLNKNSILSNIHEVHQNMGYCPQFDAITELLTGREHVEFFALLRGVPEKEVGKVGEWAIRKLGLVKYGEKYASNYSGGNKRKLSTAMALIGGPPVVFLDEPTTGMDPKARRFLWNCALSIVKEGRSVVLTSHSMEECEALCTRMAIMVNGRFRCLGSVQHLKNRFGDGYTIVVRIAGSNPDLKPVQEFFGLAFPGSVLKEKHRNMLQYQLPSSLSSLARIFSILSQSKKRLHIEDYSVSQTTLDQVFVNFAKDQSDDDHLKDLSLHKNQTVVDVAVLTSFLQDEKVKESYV

With `C=CCCCC[C@H](NC(=O)[C@@H]1CCCN1C(C)=O)C(=O)N[C@@H](CC(C)C)C(=O)N[C@@H](CC(=O)O)C(=O)N[C@@H](CCC(=O)O)C(=O)N[C@@H](Cc1ccccc1)C(=O)N[C@@H](CCCN=C(N)N)C(=O)N[C@@H](CCC(=O)O)C(=O)N[C@@H](CCCCN)C(=O)N[C@@H](CC(C)C)C(=O)N[C@@H](CC(N)=O)C(=O)N[C@@H](CCC(=O)O)C(=O)N[C@@H](CCC(=O)O)C(=O)N[C@@H](CC(C)C)C(=O)N[C@@H](CCC(=O)O)C(=O)N[C@@H](C)C(=O)N[C@@H](CC(C)C)C(=O)N[C@@H](CCCCN)C(=O)N[C@@H](CCC(N)=O)C(=O)N[C@@H](CCCCN)C(=O)N[C@@H](CC(C)C)C(=O)N[C@@H](CCCCN)C(N)=O`, the half-maximal effective concentration (EC50) was above 100 µM. The figure for `C=CCCCC[C@H](NC(=O)[C@@H](NC(=O)[C@@H]1CCCN1C(C)=O)C(C)C)C(=O)N[C@@H](CC(=O)O)C(=O)N[C@@H](CCC(=O)O)C(=O)N[C@@H](Cc1ccccc1)C(=O)N[C@@H](CCCNC(=N)N)C(=O)N[C@@H](CCC(=O)O)C(=O)N[C@@H](CCCCN)C(=O)N[C@@H](CC(C)C)C(=O)N[C@@H](CC(N)=O)C(=O)N[C@@H](CCC(=O)O)C(=O)N[C@@H](CCC(=O)O)C(=O)N[C@@H](CC(C)C)C(=O)N[C@@H](CCC(=O)O)C(=O)N[C@@H](C)C(=O)N[C@@H](CC(C)C)C(=O)N[C@@H](CCCCN)C(=O)N[C@@H](CCC(N)=O)C(=O)N[C@@H](CCCCN)C(=O)N[C@@H](CC(C)C)C(=O)N[C@@H](CCCCN)C(N)=O` is above 100 µM; for `C=CCCCC[C@H](NC(=O)[C@H](CCC(=O)O)NC(=O)[C@H](CC(=O)O)NC(=O)[C@H](CC(C)C)NC(=O)[C@@H](NC(=O)[C@@H]1CCCN1C(C)=O)C(C)C)C(=O)N[C@@H](CCCNC(=N)N)C(=O)N[C@@H](CCC(=O)O)C(=O)N[C@@H](CCCCN)C(=O)N[C@@H](CC(C)C)C(=O)N[C@@H](CC(N)=O)C(=O)N[C@@H](CCC(=O)O)C(=O)N[C@@H](CCC(=O)O)C(=O)N[C@@H](CC(C)C)C(=O)N[C@@H](CCC(=O)O)C(=O)N[C@@H](C)C(=O)N[C@@H](CC(C)C)C(=O)N[C@@H](CCCCN)C(=O)N[C@@H](CCC(N)=O)C(=O)N[C@@H](CCCCN)C(=O)N[C@@H](CC(C)C)C(=O)N[C@@H](CCCCN)C(N)=O` it is above 100 µM; for `C=CCCCC[C@H](NC(=O)[C@H](CCC(=O)O)NC(=O)[C@H](CCCN=C(N)N)NC(=O)[C@H](Cc1ccccc1)NC(=O)[C@H](CCC(=O)O)NC(=O)[C@H](CC(=O)O)NC(=O)[C@H](CC(C)C)NC(=O)[C@@H](NC(=O)[C@@H]1CCCN1C(C)=O)C(C)C)C(=O)N[C@@H](CC(C)C)C(=O)N[C@@H](CC(N)=O)C(=O)N[C@@H](CCC(=O)O)C(=O)N[C@@H](CCC(=O)O)C(=O)N[C@@H](CC(C)C)C(=O)N[C@@H](CCC(=O)O)C(=O)N[C@@H](C)C(=O)N[C@@H](CC(C)C)C(=O)N[C@@H](CCCCN)C(=O)N[C@@H](CCC(N)=O)C(=O)N[C@@H](CCCCN)C(=O)N[C@@H](CC(C)C)C(=O)N[C@@H](CCCCN)C(N)=O` it is above 100 µM. The molecule `C=CCCCC[C@H](NC(=O)[C@H](CCC(=O)O)NC(=O)[C@H](CCC(=O)O)NC(=O)[C@H](CC(N)=O)NC(=O)[C@H](CC(C)C)NC(=O)[C@H](CCCCN)NC(=O)[C@H](CCC(=O)O)NC(=O)[C@H](CCCNC(=N)N)NC(=O)[C@H](Cc1ccccc1)NC(=O)[C@H](CCC(=O)O)NC(=O)[C@H](CC(=O)O)NC(=O)[C@H](CC(C)C)NC(=O)[C@@H](NC(=O)[C@@H]1CCCN1C(C)=O)C(C)C)C(=O)N[C@@H](CCC(=O)O)C(=O)N[C@@H](C)C(=O)N[C@@H](CC(C)C)C(=O)N[C@@H](CCCCN)C(=O)N[C@@H](CCC(N)=O)C(=O)N[C@@H](CCCCN)C(=O)N[C@@H](CC(C)C)C(=O)N[C@@H](CCCCN)C(N)=O` registered a concentration for a half-maximal effect (EC50) above 100 µM.

`C=CCCCC[C@H](NC(=O)[C@H](C)NC(=O)[C@H](CCC(=O)O)NC(=O)[C@H](CC(C)C)NC(=O)[C@H](CCC(=O)O)NC(=O)[C@H](CCC(=O)O)NC(=O)[C@H](CC(N)=O)NC(=O)[C@H](CC(C)C)NC(=O)[C@H](CCCCN)NC(=O)[C@H](CCC(=O)O)NC(=O)[C@H](CCCNC(=N)N)NC(=O)[C@H](Cc1ccccc1)NC(=O)[C@H](CCC(=O)O)NC(=O)[C@H](CC(=O)O)NC(=O)[C@H](CC(C)C)NC(=O)[C@@H](NC(=O)[C@@H]1CCCN1C(C)=O)C(C)C)C(=O)N[C@@H](CCCCN)C(=O)N[C@@H](CCC(N)=O)C(=O)N[C@@H](CCCCN)C(=O)N[C@@H](CC(C)C)C(=O)N[C@@H](CCCCN)C(N)=O` showed an EC50 above 100 µM.

Turning to `C=CCCCC[C@H](NC(=O)[C@H](CCC(N)=O)NC(=O)[C@H](CCCCN)NC(=O)[C@H](CC(C)C)NC(=O)[C@H](C)NC(=O)[C@H](CCC(=O)O)NC(=O)[C@H](CC(C)C)NC(=O)[C@H](CCC(=O)O)NC(=O)[C@H](CCC(=O)O)NC(=O)[C@H](CC(N)=O)NC(=O)[C@H](CC(C)C)NC(=O)[C@H](CCCCN)NC(=O)[C@H](CCC(=O)O)NC(=O)[C@H](CCCNC(=N)N)NC(=O)[C@H](Cc1ccccc1)NC(=O)[C@H](CCC(=O)O)NC(=O)[C@H](CC(=O)O)NC(=O)[C@H](CC(C)C)NC(=O)[C@@H](NC(=O)[C@@H]1CCCN1C(C)=O)C(C)C)C(=O)N[C@@H](CC(C)C)C(=O)N[C@@H](CCCCN)C(N)=O`, the EC50 was 213 µM.

`C=CCCCC[C@H](NC(=O)[C@H](CCCCN)NC(=O)[C@H](CCC(N)=O)NC(=O)[C@H](CCCCN)NC(=O)[C@H](CC(C)C)NC(=O)[C@H](C)NC(=O)[C@H](CCC(=O)O)NC(=O)[C@H](CC(C)C)NC(=O)[C@H](CCC(=O)O)NC(=O)[C@H](CCC(=O)O)NC(=O)[C@H](CC(N)=O)NC(=O)[C@H](CC(C)C)NC(=O)[C@H](CCCCN)NC(=O)[C@H](CCC(=O)O)NC(=O)[C@H](CCCNC(=N)N)NC(=O)[C@H](Cc1ccccc1)NC(=O)[C@H](CCC(=O)O)NC(=O)[C@H](CC(=O)O)NC(=O)[C@H](CC(C)C)NC(=O)[C@@H](NC(=O)[C@@H]1CCCN1C(C)=O)C(C)C)C(=O)N[C@@H](CCCCN)C(N)=O` returned an EC50 above 100 µM. The figure for `C=CCCCC[C@H](NC(=O)[C@H](CCCCN)NC(=O)[C@H](CCC(=O)O)NC(=O)[C@H](CCCN=C(N)N)NC(=O)[C@H](Cc1ccccc1)NC(=O)[C@H](CCC(=O)O)NC(=O)[C@H](CC(=O)O)NC(=O)[C@H](CC(C)C)NC(=O)[C@@H](NC(=O)[C@@H]1CCCN1C(C)=O)C(C)C)C(=O)N[C@@H](CC(N)=O)C(=O)N[C@@H](CCC(=O)O)C(=O)N[C@@H](CCC(=O)O)C(=O)N[C@@H](CC(C)C)C(=O)N[C@@H](CCC(=O)O)C(=O)N[C@@H](C)C(=O)N[C@@H](CC(C)C)C(=O)N[C@@H](CCCCN)C(=O)N[C@@H](CCC(N)=O)C(=O)N[C@@H](CCCCN)C(=O)N[C@@H](CC(C)C)C(=O)N[C@@H](CCCCN)C(N)=O` is above 100 µM; for `C=CCCCC[C@@H](NC(=O)[C@@H]1CCCN1C(C)=O)C(=O)N[C@@H](CC(C)C)C(=O)N[C@@H](CC(=O)O)C(=O)N[C@@H](CCC(=O)O)C(=O)N[C@@H](Cc1ccccc1)C(=O)N[C@@H](CCCN=C(N)N)C(=O)N[C@@H](CCC(=O)O)C(=O)N[C@@H](CCCCN)C(=O)N[C@@H](CC(C)C)C(=O)N[C@@H](CC(N)=O)C(=O)N[C@@H](CCC(=O)O)C(=O)N[C@@H](CCC(=O)O)C(=O)N[C@@H](CC(C)C)C(=O)N[C@@H](CCC(=O)O)C(=O)N[C@@H](C)C(=O)N[C@@H](CC(C)C)C(=O)N[C@@H](CCCCN)C(=O)N[C@@H](CCC(N)=O)C(=O)N[C@@H](CCCCN)C(=O)N[C@@H](CC(C)C)C(=O)N[C@@H](CCCCN)C(N)=O` it is above 100 µM; for `C=CCCCC[C@@H](NC(=O)[C@@H](NC(=O)[C@@H]1CCCN1C(C)=O)C(C)C)C(=O)N[C@@H](CC(=O)O)C(=O)N[C@@H](CCC(=O)O)C(=O)N[C@@H](Cc1ccccc1)C(=O)N[C@@H](CCCNC(=N)N)C(=O)N[C@@H](CCC(=O)O)C(=O)N[C@@H](CCCCN)C(=O)N[C@@H](CC(C)C)C(=O)N[C@@H](CC(N)=O)C(=O)N[C@@H](CCC(=O)O)C(=O)N[C@@H](CCC(=O)O)C(=O)N[C@@H](CC(C)C)C(=O)N[C@@H](CCC(=O)O)C(=O)N[C@@H](C)C(=O)N[C@@H](CC(C)C)C(=O)N[C@@H](CCCCN)C(=O)N[C@@H](CCC(N)=O)C(=O)N[C@@H](CCCCN)C(=O)N[C@@H](CC(C)C)C(=O)N[C@@H](CCCCN)C(N)=O` it is above 100 µM. As for `C=CCCCC[C@@H](NC(=O)[C@H](CCC(=O)O)NC(=O)[C@H](CC(=O)O)NC(=O)[C@H](CC(C)C)NC(=O)[C@@H](NC(=O)[C@@H]1CCCN1C(C)=O)C(C)C)C(=O)N[C@@H](CCCN=C(N)N)C(=O)N[C@@H](CCC(=O)O)C(=O)N[C@@H](CCCCN)C(=O)N[C@@H](CC(C)C)C(=O)N[C@@H](CC(N)=O)C(=O)N[C@@H](CCC(=O)O)C(=O)N[C@@H](CCC(=O)O)C(=O)N[C@@H](CC(C)C)C(=O)N[C@@H](CCC(=O)O)C(=O)N[C@@H](C)C(=O)N[C@@H](CC(C)C)C(=O)N[C@@H](CCCCN)C(=O)N[C@@H](CCC(N)=O)C(=O)N[C@@H](CCCCN)C(=O)N[C@@H](CC(C)C)C(=O)N[C@@H](CCCCN)C(N)=O`, the figure is above 100 µM; as for `C=CCCCC[C@@H](NC(=O)[C@H](CCC(=O)O)NC(=O)[C@H](CCCNC(=N)N)NC(=O)[C@H](Cc1ccccc1)NC(=O)[C@H](CCC(=O)O)NC(=O)[C@H](CC(=O)O)NC(=O)[C@H](CC(C)C)NC(=O)[C@@H](NC(=O)[C@@H]1CCCN1C(C)=O)C(C)C)C(=O)N[C@@H](CC(C)C)C(=O)N[C@@H](CC(N)=O)C(=O)N[C@@H](CCC(=O)O)C(=O)N[C@@H](CCC(=O)O)C(=O)N[C@@H](CC(C)C)C(=O)N[C@@H](CCC(=O)O)C(=O)N[C@@H](C)C(=O)N[C@@H](CC(C)C)C(=O)N[C@@H](CCCCN)C(=O)N[C@@H](CCC(N)=O)C(=O)N[C@@H](CCCCN)C(=O)N[C@@H](CC(C)C)C(=O)N[C@@H](CCCCN)C(N)=O`, above 100 µM; as for `C=CCCCC[C@@H](NC(=O)[C@H](CCCCN)NC(=O)[C@H](CCC(=O)O)NC(=O)[C@H](CCCNC(=N)N)NC(=O)[C@H](Cc1ccccc1)NC(=O)[C@H](CCC(=O)O)NC(=O)[C@H](CC(=O)O)NC(=O)[C@H](CC(C)C)NC(=O)[C@@H](NC(=O)[C@@H]1CCCN1C(C)=O)C(C)C)C(=O)N[C@@H](CC(N)=O)C(=O)N[C@@H](CCC(=O)O)C(=O)N[C@@H](CCC(=O)O)C(=O)N[C@@H](CC(C)C)C(=O)N[C@@H](CCC(=O)O)C(=O)N[C@@H](C)C(=O)N[C@@H](CC(C)C)C(=O)N[C@@H](CCCCN)C(=O)N[C@@H](CCC(N)=O)C(=O)N[C@@H](CCCCN)C(=O)N[C@@H](CC(C)C)C(=O)N[C@@H](CCCCN)C(N)=O`, above 100 µM.
